Experimental data published in patent publication US7399479B2, “Microemulsions, especially for skin or hair treatment” (Wella AG, priority 2004, dated 2008).

System: human keratinocyte cell line HaCaT
Experiment: Neutral Red Uptake (NRU) cytotoxicity test with HaCaT cells
Assay type: cell-based
From the text: NRU50 values are the NRU values used in the present invention. They characterize the concentration of a substance or composition, at which the up-take of the dye neutral red is reduced to about 50% in human keratinocyte cells. Neutral red (3-amino-7-dimethylamino-2-methyl phenazine hydrochloride) is a weak cationic dye, which easily diffuses from an outer medium through a cell membrane separating individual cells into the cell interior. Changes in the cell surface or the cell membrane by potentially harmful substances reduce the dye uptake and the retention of the dye in the cell. A high NRU50 value means a slight cell-damaging action and low cytotoxicity and is a hint of an improved eye compatibility of the tested substance or composition.
The neutral red (3-amino-7-dimethylamino-2-methyl phenazine hydrochloride) taken up by the cells exposed to the test substance is extracted and measured spectrophotometrically at 540 nm. Toxicological effects cause a reduction in the amount of taken-up neutral red in comparison to separate untreated control cells. The concentration of the test substance, which leads to a reduction of the up-taken and bound neutral red amount of about 50% in comparison to the control cells, is the NRU50-value.
The HaCaT cells are grown in Dulbecco's modified Eagle's medium with 2 mM L-glutamin, 10% (v/v) foetal calf serum (FCS), 100 IU penicillin and 100 μg/ml streptomycin added in an atmosphere having 95% humidity and 5% CO2.
In pretests an approximate NRU50 value is determined with 8 different concentrations of the test substance. On this basis eight suitable concentrations around these approximate values are selected for the final measurements. The measurement is repeated with an independent batch with equal concentrations. Sodium lauryl sulfate with concentrations of 50, 25, 10 and 1 μg/ml is used as reference substance.
Approximately 2*10^4 HaCaT cells in 250 μl growth medium per receptacle are placed in 60 central receptacles of microtiter plates each with 96 receptacles. The corner receptacles act as controls and contain only the growth medium. The plates are incubated for 24 hours at 37° C. in a moist atmosphere with 5% CO2 and 95% air. The culture medium is removed and either replaced by pure treatment medium or by treatment medium containing the various concentration of the test substance to be tested or the reference substance.
After an acting time of 24 hours the treatment medium is replaced by storage medium, which contains 50 μg/ml of neutral red. The plates are placed again in the incubator for three hours. After that the medium is removed, the cells washed with a fixative (1% formaldehyde, 1% calcium chloride) and 100 μl of an extraction solution (1% acetic acid in 50% ethanol) is added to each receptacle for dye extraction. After 20 minutes the absorption is measured at 540 nm with a microplate reader. Concentration/effectiveness diagrams are drawn or plotted, expressed as percent viability of the negative control cells (CC) relative to the respective test concentrations from the average values and after correction with the null value from the BC receptacles.

Substance	NRU [µg/mL]	NRU50 [µg/mL]
Ceteareth-20 [EUMULGIN® B2]	5.8	
PEG-60 Hydrogenated Castor Oil [CREMOPHOR® CO60]		203
Oleth-5 [EUMULGIN® 05]	7.8	
Oleth-20 [VOLPO® N20]	6.2	
PEG-40 Hydrogenated Castor Oil [CREMOPHOR® RH 410]		188
